Laboratory results published in patent US20090105349A1, “ANDROGEN MODULATORS” (WARNER-LAMBERT COMPANY LLC, priority 2004, published 2009).
Substitutions are numbered along the chain they refer to. Read-outs that look alike come from different tables or passages of the source.

Legend:
[1] = molecular target: T1, androgen receptor in MDA-MB453-MMTV clone 54-19 cells (Homo sapiens, UniProt P10275); test: AR antagonist cell assay (MMTV-luciferase reporter); type: cell-based
T1 sequence (P10275 1-920 Q868H): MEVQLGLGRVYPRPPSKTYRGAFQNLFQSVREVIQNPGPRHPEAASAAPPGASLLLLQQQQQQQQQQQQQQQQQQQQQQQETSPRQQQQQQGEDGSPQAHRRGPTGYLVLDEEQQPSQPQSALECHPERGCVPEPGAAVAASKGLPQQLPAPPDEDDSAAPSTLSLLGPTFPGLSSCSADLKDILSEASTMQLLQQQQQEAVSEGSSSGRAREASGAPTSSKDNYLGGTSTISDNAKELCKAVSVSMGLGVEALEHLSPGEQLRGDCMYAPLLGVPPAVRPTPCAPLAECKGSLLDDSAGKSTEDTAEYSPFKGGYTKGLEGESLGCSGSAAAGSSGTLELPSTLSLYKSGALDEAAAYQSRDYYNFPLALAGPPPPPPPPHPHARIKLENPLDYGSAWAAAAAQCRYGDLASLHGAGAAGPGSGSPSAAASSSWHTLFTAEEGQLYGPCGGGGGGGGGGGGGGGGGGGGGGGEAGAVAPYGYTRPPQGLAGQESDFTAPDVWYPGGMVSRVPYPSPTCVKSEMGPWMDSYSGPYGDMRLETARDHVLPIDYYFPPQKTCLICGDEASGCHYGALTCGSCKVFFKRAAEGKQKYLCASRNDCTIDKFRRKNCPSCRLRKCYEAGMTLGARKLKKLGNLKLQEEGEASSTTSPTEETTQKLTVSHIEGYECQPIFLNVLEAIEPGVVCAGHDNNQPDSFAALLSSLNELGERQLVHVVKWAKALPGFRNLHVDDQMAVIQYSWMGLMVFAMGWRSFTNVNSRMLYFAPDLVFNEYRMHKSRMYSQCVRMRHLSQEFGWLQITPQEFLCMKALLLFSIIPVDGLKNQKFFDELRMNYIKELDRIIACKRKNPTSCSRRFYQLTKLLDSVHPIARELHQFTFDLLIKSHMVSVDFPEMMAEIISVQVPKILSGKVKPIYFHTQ
Procedure: The compounds ability to antagonize the effects of androgen on the androgen receptor were determined in a whole cell assay as described immediately below.
This cell line is a stable transfected cell line with MDA-MB453 cell background (a human breast tumor cell line expressing androgen receptor). A MMTV minimal promoter containing ARE was first cloned in front of a firefly luciferase reporter gene. Then the cascade was cloned into transfection vector pUV120puro. […] Puromycin resistant stable cell line was selected.
Plating medium: DMEM (phenol red free), 10% charcoal treated HyClone serum, 1% L-glutamine
Assay medium: DMEM (phenol red free), 1% charcoal treated HyClone serum, 1% L-glutamine, and 1% penicillin/streptomycin
Assay procedure: • 1. Cells are maintained in culture medium, splitting cells when they reach 80-90% confluence • 2. To test compounds, 10,000 cells/well are plated to opaque 96 cell culture plate in 100 ul/well plating medium, culture for overnight at 37° C. in cell culture incubator • 3. […] Add 10 ul/well freshly prepared DHT (final concentration at […]) to each well, incubate at 37° C. for 17 hr (overnight) • 5.
The results are reported as the mean of multiple tests as described below (the numbers of tests are indicated in the footnote). N.D. denotes that the compound was not tested.

[2] = tested on: male C3H/HeN mice (telogen to anagen conversion); type: in vivo
Source text: While this model is a significant improvement over the telogen conversion assay as a model for human baldness, it suffers from a number of practical disadvantages. The macaques are expensive, relatively rare, labor intensive to maintain, and require long wash out periods between testing. […] Thus, the model relates to a modification of the existing telogen conversion assay. Male C3H/HeN mice approximately 7 weeks old are utilized. These animals are also uniformly in telogen, like their female counterparts. However, once shaven, the androgens inherently present in these male mice inhibit the conversion of the hair follicles to the anagen phase. An anti-androgen will block this androgenic effect and the follicles will convert to anagen, like their female counterparts.
The compounds shown below in Table IV were submitted for further testing utilizing the modified telogen conversion assay, described above. The testing was carried out in the following manner.
Male C3H/HeN mice, 6 to 7 weeks old (Charles River Laboratories, Raleigh, N.C.) were used for the study. Fur was clipped from the dorsal region of the mice prior to initiation of the study. Only mice with pink skin, a visual indication of the telogen phase, were selected for inclusion in the study.
A second group of animals received only the vehicle to serve as a control. Treatments were applied twice daily for 4 weeks.
The hair growth response was quantified by recording, for each animal, the day on which signs of hair growth first appeared over the treated area. The first sign of anagen was the darkening of skin color as melanocytes in the follicles started to synthesize melanin in preparation for the production of pigmented hairs. […] The day on which anagen was initiated in 50% of the test animals for both the treatment group and the vehicle group is reported below in Table IV.

[3] = molecular target: T2, hAR (human androgen receptor) (Homo sapiens, UniProt P10275); test: Competitive hAR binding assay with 3H-DHT tracer
T2 construct: made in house; host or cells: baculovirus/Sf9 insect cells (crude extract)
T2 sequence (P10275 1-920): T1 sequence (P10275 1-920 Q868H) with H868Q

[4] = MDA-MB453-MMTV clone 54-19, inhibition of DHT induced luciferase, 17 hr; mean of multiple tests; read-out: AR Cell IC50
[5] = baculovirus/Sf9 hAR extract, 1 nM 3H-DHT, one hour at 4° C, mean of multiple tests, read-out: AR Binding IC50
[6] = read-out: AR Cell IC50; MDA-MB453-MMTV clone 54-19, inhibition of DHT induced luciferase, 17 hr; mean of multiple tests

Compound	IC50 [1, 4] [nM]	Anagen-Trx (day on which anagen was initiated in 50% of the test animals) ([2]; 1 % w/v, Vehicle #2, topical twice daily for 4 weeks) [days]	IC50 [3, 5] [nM]	IC50 [1, 6] [nM]	Anagen-Trx (day on which anagen was initiated in 50% of the test animals) ([2]; mouse, in vivo) [days]	IC50 [3] [nM]
N#Cc1ccc(Oc2ccccc2F)c(Cl)c1 [Example 27, 3-Chloro-4-(2-fluoro-phenoxy)-benzonitrile]	46	>35	–	–	–	–
COc1cc(F)ccc1Oc1ccc(C#N)cc1Cl [Example 29, 3-Chloro-4-(4-fluoro-2-methoxy-phenoxy)-benzonitrile]	–	–	135	67	25	–
COc1cccc(Oc2ccc(C#N)c(C(F)(F)F)c2)c1OC [Example 91, 4-(2,3-Dimethoxy-phenoxy)-2-trifluoromethyl-benzonitrile]	–	–	272	28	20	–
Cc1ccc(Oc2ccc(C#N)c(C(F)(F)F)c2)c(C)c1 [Example 99, 4-(2,4-Dimethyl-phenoxy)-2-trifluoromethyl-benzonitrile]	899	–	–	–	–	46
N#Cc1ccc(Oc2ccc(C#N)c(C(F)(F)F)c2)cc1C#N [Example 100, 4-(4-Cyano-3-trifluoromethyl-phenoxy)-phthalonitrile]	822	–	173	–	–	–
N#Cc1ccc(Oc2ccccc2C2CCCC2)cc1C(F)(F)F [Example 104, 4-(2-Cyclopentyl-phenoxy)-2-trifluoromethyl-benzonitrile]	592	–	228	–	–	–
C=CCc1ccccc1Oc1ccc(C#N)c(C(F)(F)F)c1 [Example 105, 4-(2-Allyl-phenoxy)-2-trifluoromethyl-benzonitrile]	> 1000	–	–	–	–	82
CCN(CC)C(=O)c1ccccc1Oc1ccc(C#N)c(C(F)(F)F)c1 [Example 106, 2-(4-Cyano-3-trifluoromethyl-phenoxy)-N,N-diethyl-benzamide]	> 1000	–	175	–	–	–
N#Cc1ccc(Oc2ccccc2C(F)(F)F)cc1C(F)(F)F [Example 108, 2-Trifluoromethyl-4-(2-trifluoromethyl-phenoxy)-benzonitrile]	> 1000	–	–	–	–	57
CC(C)Oc1ccccc1Oc1ccc(C#N)c(C(F)(F)F)c1 [Example 110, 4-(2-Isopropoxy-phenoxy)-2-trifluoromethyl-benzonitrile]	206	–	218	–	–	–
N#Cc1ccc(Oc2ccc(F)cc2F)cc1C(F)(F)F [Example 115, 4-(2,4-Difluoro-phenoxy)-2-trifluoromethyl-benzonitrile]	–	–	–	56	–	128
COc1c(O)cccc1Oc1ccc(C#N)c(C(F)(F)F)c1 [Example 116, 4-(3-Hydroxy-2-methoxy-phenoxy)-2-trifluoromethyl-benzonitrile]	–	–	–	3	–	30
COc1cc(Oc2ccccc2C)ccc1C#N [Example 117, 2-Methoxy-4-o-tolyloxy-benzonitrile]	26	–	53	–	–	–
Cc1ccc(F)c(Oc2ccc(C#N)c(C(F)(F)F)c2)c1F [Example 118, 4-(2,6-Difluoro-3-methyl-phenoxy)-2-trifluoromethyl-benzonitrile]	249	–	–	–	–	76
CC(O)c1cc(F)ccc1Oc1ccc(C#N)c(C(F)(F)F)c1 (stereo not drawn) [Example 119, 4-[4-Fluoro-2-(1-hydroxy-ethyl)-phenoxy]-2-trifluoromethyl-benzonitrile]	458	–	279	–	–	–
CC(=O)c1cc(F)ccc1Oc1ccc(C#N)c(C(F)(F)F)c1 [Example 120, 4-(2-Acetyl-4-fluoro-phenoxy)-2-trifluoromethyl-benzonitrile]	367	–	222	–	–	–
N#Cc1ccc(Oc2c(F)cccc2F)cc1C(F)(F)F [Example 121, 4-(2,6-Difluoro-phenoxy)-2-trifluoromethyl-benzonitrile]	–	–	–	17	–	63
N#CCOc1ccccc1Oc1ccc(C#N)c(C(F)(F)F)c1 [Example 123, 4-(2-cyanomethoxy-phenoxy)-2-trifluoromethyl-benzonitrile]	–	–	141	54	–	–
N#Cc1ccc(Oc2c(F)cccc2F)c(Cl)c1 [Example 124, 3-Chloro-4-(2,6-difluoro-phenoxy)-benzonitrile]	–	–	–	60	–	45
COc1cc(C#N)ccc1Oc1ccccc1C [Example 125, 3-Methoxy-4-o-tolyloxy-benzonitrile]	50	–	433	–	–	–
